According to patent US11186572B2, “Bacterial glutaminyl cyclases and inhibitors thereof for use in the treatment of periodontitis” (Fraunhofer-Gesellschaft zur Forderung der Angewandten …, priority 2016, dated 2021):
Converted amounts (≈) assume the structure as drawn. “Also recorded” adds a separate entry of the source. Read-outs that look alike come from different tables or passages of the source. Blank lines part the entries; values can stand above or below the compound they belong to.

What was measured:
T. forsythia ATCC 42077 = assay: MIC/MBC, cultivation in 2-fold dilution series; format: cell-based; conditions: Tannerella forsythia, ATCC42077, T.f. ATCC 42077; for MIC: lowest concentration without visible growth (turbidity); for MBC: no growth of subcultivation or reduction by 99.9%
Description: (§1) Bacteria expressing PgQC, TfQC and PiQC, namely P. gingivalis ATCC 33277, P. gingivalis M5-1-2, T. forsythia ATCC 42077, and P. intermedia ATCC 25611 were cultivated in the presence of compounds MWT-S-00275, MWT-S-00431, MWT-S-00441 and doxycycline in 2-fold dilution series. […]

P. gingivalis ATCC 33277 = assay: MIC/MBC, cultivation in 2-fold dilution series; format: cell-based; conditions: Porphyromonas gingivalis, ATCC33277, P.g. ATCC 33277; for MIC: lowest concentration without visible growth (turbidity); for MBC: no growth of subcultivation or reduction by 99.9%
Description: as §1

P. intermedia ATCC 25611 = assay: MIC/MBC, cultivation in 2-fold dilution series; format: cell-based; conditions: Prevotella intermedia, ATCC25611, P.i. ATCC 25611; for MIC: lowest concentration without visible growth (turbidity); for MBC: no growth of subcultivation or reduction by 99.9%
Description: as §1

P. gingivalis M5-1-2 = assay: MIC/MBC, cultivation in 2-fold dilution series; format: cell-based; conditions: Porphyromonas gingivalis, M512, P.g. M5-1-2; for MIC: lowest concentration without visible growth (turbidity); for MBC: no growth of subcultivation or reduction by 99.9%
Description: as §1

[1] = system: bacterial QC (PgQC, PiQC, TfQC); assay: Inhibition of bacterial QC by metal chelators (fluorometric activity assay); format: biochemical, P. gingivalis, P. intermedia, T. forsythia; conditions: 250 μM H-Gln-AMC, increasing chelator concentrations, approx. 5 nM bacQC, 30° C.; all three bacterial QC (FIG. 7)
Description: The fluorometrically activity assay was carried out as described above, except the presence of 1% (v/v) DMSO in the case of 1,10-phenanthroline or dipicolinic acid. Finally the residual bacQC activity was determined at steady state whereas bacQC without Chelators and +/−1% DMSO served as positive control.
The reaction was initiated by adding approximately 5 nM bacQC. Black bars indicate residual PgQC activity, striped bars represent residual PiQC activity, and white bars display residual TfQC activity. All determinations were carried out at 30° C. as described above.

PgQC = molecular target: T1, PgQC (Porphyromonas gingivalis, UniProt Q7MT37); assay: biochemical; parameters: species or system P. gingivalis
T1 construct: Ki; RA (average residual QC activity of PgQC); other: c = 1 μM; other: c = 1.5 μM; other: c = 10 μM; other: c = 100 μM; other: c = 12 μM; RA; fused on or other part: N-terminal His tag from pET28a(+), cleaved off by thrombin before the enzymatic characterisation
Description: The assay consists of varying concentration of the fluorogenic substrate and 0.5 U pyroglutaminyl aminopeptidase in 50 mM Tris-HCl, 50 mM NaCl at pH 8.0. After 10 minute incubation time at 30° C. reaction was initiated by addition of bacQC to a final volume of 125 μl reaction mixture. […] All determinations were carried out in 96 well microtiter plates (Fisher Scientific) at 30° C. using the FluoStar Optima (BMG Labtech).
For inhibitor testing, the sample composition was the same as described above, except for the addition of the putative inhibitory compound. […] (∘) represents reaction without inhibitor. Determinations were carried out in 50 mM Tris-HCl, 50 mM NaCl pH 8.0 and 1% (v/v) DMSO at 30° C.
RA refers to the average residual QC activity of PgQC measured in the presence of a concentration c of the respective compound. Ki refers to the average Ki values measured as described above, and Std(Ki) refers to the standard deviation of Ki.

[2] = read-out: RA (average residual QC activity of PgQC)
[3] = inhibition of PgQC, H-Gln-AMC, 50 mM Tris-HCl, 50 mM NaCl pH 8.0, 30° C., read-out: Ki (average)

MIC (T. forsythia ATCC 42077): ≤ 3130 µg/mL | MIC (P. gingivalis ATCC 33277): ≤ 3130 µg/mL | MIC (P. intermedia ATCC 25611): ≤ 3130 µg/mL | MIC (P. gingivalis M5-1-2): ≤ 3130 µg/mL
SMILES: C[C@H]1c2cccc(O)c2C(=O)C2=C(O)[C@]3(O)C(=O)C(C(N)=O)=C(O)[C@@H](N(C)C)[C@@H]3[C@@H](O)[C@@H]21 [Doxy, Doxycycline, reference compound]
MBC (T. forsythia ATCC 42077): 6250 µg/mL (≈ 14.1 mM) | MBC (P. gingivalis ATCC 33277): 50000 µg/mL (≈ 113 mM) | MBC (P. intermedia ATCC 25611): 12500 µg/mL (≈ 28.1 mM)

SMILES: O=C(O)CN(CCN(CC(=O)O)CC(=O)O)CC(=O)O [EDTA]
inhibitory effect on bacQC activity (residual activity) [1]: does not influence bacQC activity

SMILES: CC1(C)c2nc[nH]c2CCN1Cc1cc(F)c(F)c(F)c1 [MWT-S-00275, 4,4-Dimethyl-5-[(3,4,5-trifluorophenyl)methyl]-6,7-dihydro-3H-imidazo[4,5-c]pyridine]
Ki (PgQC; Ki (average), inhibition of PgQC, H-Gln-AMC, 50 mM Tris-HCl, 50 mM NaCl pH 8.0, 30° C.): 143 nM | remaining activity at 1 µM (PgQC; [2]): 22% | MIC (T. forsythia ATCC 42077): 250 µg/mL (≈ 0.847 mM) | MBC (T. forsythia ATCC 42077): 250 µg/mL (≈ 0.847 mM) | MIC (P. gingivalis ATCC 33277): 500 µg/mL (≈ 1.69 mM) | MBC (P. gingivalis ATCC 33277): 1000 µg/mL (≈ 3.39 mM) | MIC (P. intermedia ATCC 25611): 500 µg/mL (≈ 1.69 mM) | MBC (P. intermedia ATCC 25611): 500 µg/mL (≈ 1.69 mM) | MIC (P. gingivalis M5-1-2): 500 µg/mL (≈ 1.69 mM) | MBC (P. gingivalis M5-1-2): 1000 µg/mL (≈ 3.39 mM)

SMILES: O=C(c1cc(Cl)cc(Cl)c1)N1CCc2[nH]cnc2C1 [MWT-S-00431, (3,5-Dichlorophenyl)(1,4,6,7-tetrahydro-5H-imidazo[4,5-c]pyridin-5-yl)methanone]
Ki (PgQC; Ki, Table 3 fit, competitive inhibition, 1% (v/v) DMSO, pH 8.0, 30° C.): 104 nM | Ki (PgQC; Ki, exemplary determination (FIG. 4), 1% (v/v) DMSO, pH 8.0, 30° C.): 104 ± 3.31 nM | Ki (PgQC; [3]): 100 nM | remaining activity at 10 µM (PgQC; [2]): 3% | MIC (T. forsythia ATCC 42077): 1000 µg/mL (≈ 3.38 mM) | MBC (T. forsythia ATCC 42077): 2000 µg/mL (≈ 6.75 mM) | MIC (P. gingivalis ATCC 33277): 1000 µg/mL (≈ 3.38 mM) | MBC (P. gingivalis ATCC 33277): 2000 µg/mL (≈ 6.75 mM) | MIC (P. intermedia ATCC 25611): 125 µg/mL (≈ 0.422 mM) | MBC (P. intermedia ATCC 25611): 500 µg/mL (≈ 1.69 mM) | MIC (P. gingivalis M5-1-2): 1000 µg/mL (≈ 3.38 mM) | MBC (P. gingivalis M5-1-2): 2000 µg/mL (≈ 6.75 mM)

SMILES: O=C(c1cc(F)c(F)c(F)c1)N1CCc2[nH]cnc2C1 [MWT-S-00435, (1,4,6,7-Tetrahydro-5H-imidazo[4,5-c]pyridin-5-yl)(3,4,5-trifluoro-phenyl)methanone]
Ki (PgQC; [3]): 904 nM | remaining activity at 10 µM (PgQC; [2]): 16%

SMILES: COc1cc(C(=O)N2CCc3[nH]cnc3C2)ccc1F [MWT-S-00436, (4-Fluoro-3-methoxyphenyl)(1,4,6,7-tetrahydro-5H-imidazo[4,5-c]pyridin-5-yl)methanone]
Ki (PgQC; [3]): 1240 nM | remaining activity at 100 µM (PgQC; [2]): 3%

SMILES: O=C(c1ccc2ccccc2c1)N1CCc2[nH]cnc2C1 [MWT-S-00440, Naphthalen-2-yl(1,4,6,7-tetrahydro-5H-imidazo[4,5-c]pyridin-5-yl)methanone]
Ki (PgQC; [3]): 126 nM | remaining activity at 10 µM (PgQC; [2]): 4%

SMILES: COc1cc(Cl)cc(C(=O)N2CCc3[nH]cnc3C2)c1 [MWT-S-00441, (3-Chloro-5-methoxyphenyl)(1,4,6,7-tetrahydro-5H-imidazo[4,5-c]pyridin-5-yl)methanone]
Ki (PgQC; [3]): 87 nM | remaining activity at 1 µM (PgQC; [2]): 17% | MIC (T. forsythia ATCC 42077): 2000 µg/mL (≈ 6.86 mM) | MBC (T. forsythia ATCC 42077): 2000 µg/mL (≈ 6.86 mM) | MIC (P. gingivalis ATCC 33277): 1000 µg/mL (≈ 3.43 mM) | MBC (P. gingivalis ATCC 33277): 2000 µg/mL (≈ 6.86 mM) | MIC (P. intermedia ATCC 25611): 63 µg/mL (≈ 0.216 mM) | MBC (P. intermedia ATCC 25611): 63 µg/mL (≈ 0.216 mM) | MIC (P. gingivalis M5-1-2): 1000 µg/mL (≈ 3.43 mM) | MBC (P. gingivalis M5-1-2): > 2000 µg/mL

SMILES: O=C(O)c1cccc(C(=O)O)n1 [dipicolinic acid]
inhibitory effect on bacQC activity (residual activity) [1]: strong inhibitory activity

SMILES: c1cnc2c(c1)ccc1cccnc12 [phenanthroline, 1,10-phenanthroline]
inhibitory effect on bacQC activity (residual activity) [1]: strong inhibitory activity; also recorded: inhibited QC activity already at low mM range
